Common to all, as to type: cell-based, Echinococcus multilocularis
Series [1] deals with E. multilocularis GL cells (isolate H95). The series can be described thus: GL cell viability assay (CellTiter-Glo), isolate H95. To be noted: isolate H95; 0.1 μM; 5 days; nitrogen atmosphere; mean (SD); active if <30%. As to the method: (§1) To assess the in vitro efficacy of ELQs against E. multilocularis, (a) the damage-marker phosphoglucose isomerase (PGI) assay was applied against metacestodes, and (b) the germinal layer (GL) cell viability assay was applied to measure effects on isolated GL cells. Both assays are described in more detail below. The drug testing strategy was as follows: PGI assay was first conducted for overview screening at 10 μM with the parasite isolates H95 and Sval. The GL cell viability assay was performed at 0.1 μM with both isolates H95 and Sval.
(§2) The isolation of E. multilocularis GL cells was done as described previously ([17]) with minor modifications. Fifteen units of GL cells were distributed to each well of a 384 well plate in a total volume of 12.5 μL conditioned medium. The different ELQs were added to the wells to 0.1 μM, in quadruplicates. As a negative control 0.1% DMSO was used. The 384-well plate was incubated for 5 days at 37°C under humid nitrogen atmosphere. Thereafter, viability of the GL cells under different drug treatments was assessed by CellTiter-Glo® (Promega AG, Dübendorf, Switzerland). The CellTiter-Glo reagent was complemented with 1% Tx-100. The luciferase bioluminescence was measured at 530 nm by using the Enspire multilabel reader (PerkinElmer Life Sciences, Schwerzenbach, Switzerland). Using Microsoft Excel, the blank values were subtracted from the experimental values and the relative viability compared to DMSO was calculated. Viabilities were calculated as mean values and standard deviations for each quadruplicate.

Series [2] deals with E. multilocularis GL cells (isolate Sval). The series can be described thus: GL cell viability assay (CellTiter-Glo), isolate Sval. To be noted: isolate Sval; 0.1 μM; 5 days; nitrogen atmosphere; mean (SD); active if <30%. As to the method: as §1, §2
Series [3] concerns E. multilocularis metacestodes. The series can be described thus: PGI assay, single and combination treatment under normoxic and anaerobic conditions. To be noted: 5 days. The procedure:
(§3) The PGI assay measures the amount of PGI that metacestodes release into the medium when damaged ([17], [32]). The purification and in vitro drug incubation of E. multilocularis metacestodes was conducted according to Stadelmann et al. ([32]). In short, cultures were applied for in vitro drug testing at the age of 6-8 weeks. E. multilocularis metacestodes were therefore purified by the addition of 2% saccharose and washed extensively with PBS. Purified metacestodes were suspended 1:3 with DMEM (without phenol red, supplemented with 100 U/mL penicillin, 100 μg/mL streptomycin) and distributed in 48-well plates (1 mL/well, thus 300 μL pure metacestode vesicles per well). […] The corresponding DMSO concentration was used as negative control and Tx-100 (0.1% final concentration) was used for total damage (positive control). […] After 5 days, relative PGI activities were measured and calculated as percentage of the Tx-100 control as described previously in Rufener et al. ([17]). They were calculated as mean values and standard deviations for each triplicate. EC50 calculations were calculated based on logit-log transformed values in Microsoft Office Excel 2010. EC50 measurements were performed twice, and averages and standard deviations of these repeated tests are given.
For double inhibition of the mitochondrial energy pathways of E. multilocularis, quinazoline as an inhibitor of the anaerobic MD ([29]) was applied in combination with ELQ-400 as an inhibitor of the ETC. Both compounds were tested either alone or in combination at 10 μM with the above-described PGI assay for 5 days for their activity against E. multilocularis metacestodes. PGI assays were done in triplicates and two times independently. […] Results of the assays were calculated as mean values and standard deviations for each biological triplicate were calculated as relative percentage to the Tx-100 control. To assess direct effects on the MD, succinate levels were measured in the supernatants of the PGI assay, as described below. […]

The subject of series [4] is E. multilocularis metacestodes (isolate H95). The experiment in a line: PGI assay (damage marker release), metacestodes, isolate H95. As to conditions: isolate H95, 5 days. The procedure:
as §1
as §3, with “EC50 calculations were calculated based on logit-log transformed values in Microsoft Office Excel 2010.” left out

Series [5] has as its system E. multilocularis metacestodes. The experiment in a line: Transmission electron microscopy of treated metacestodes. As to conditions: 5 days. The procedure:
E. multilocularis metacestodes treated with ELQ-400 (0.2, 1 and 2 μM, 5 days of incubation) under normoxic (37°C, 21% O2, 5% CO2, humid atmosphere) and anaerobic conditions (37°C, 80% N2, 10% CO2, and 10% H2, humid atmosphere) were processed for TEM as previously described ([17]). Metacestodes were washed in 100 mM sodium cacodylate buffer (pH 7.3), and were fixed in 2% glutaraldehyde in cacodylate buffer overnight at 4°C. Following several washes in cacodylate buffer, metacestodes were post-fixed in 2% osmium tetroxide in cacodylate buffer for 3–4 h, washed in water, and samples were treated with Uranyless™ solution (EMS, Hatfield, PA, USA) for 20 min, followed by several washes in distilled water. Specimens were dehydrated in a graded series of ethanol and were embedded in EPON-812 epoxy resin. Polymerization of the resin was carried out at 60°C for 24 h. Ultrathin sections were cut on a Reichert and Jung (Vienna) microtome, and were allowed to settle onto 400 mesh formvar carbon coated grids (Plano GmbH, Wetzlar, Germany). Specimens were contrasted with Uranyless and lead citrate, and were viewed on a FEI Morgagni Transmission Electron Microscope operating at 80 kV.

For series [6], the system named is E. multilocularis metacestodes. The series can be described thus: Succinate concentrations in culture supernatants (malate dismutation activity). To be noted: 10 μM, 5 days.
Method: Both compounds were tested either alone or in combination at 10 μM with the above-described PGI assay for 5 days for their activity against E. multilocularis metacestodes. PGI assays were done in triplicates and two times independently. […] To assess direct effects on the MD, succinate levels were measured in the supernatants of the PGI assay, as described below. To determine whether differences between groups were significant, data was subjected to student's t-test analysis and P-values below 0.05 are given.
Succinate measurements in supernatants of drug-treated E. multilocularis metacestodes was performed with the “Succinic Acid Assay Kit” (Megazyme, Bray, Ireland). […] 20 μL of each diluted (1:20) sample or standard was used in triplicate for succinate measurements in 96-well plates (flat bottom, Greiner Bio-One GmbH, Frickenhausen, Germany). The reaction mix buffer was prepared as described in the supplier manual: per well 180 μL H2O, 20 μL solvent 1 (buffer, pH 8.4, sodium azide 0.02% w/v), 20 μL solvent 2 (NADH plus stabilizer), 20 μL solvent 3 (ATP, PEP, and CoA) and 2 μL solvent 4 (pyruvate kinase plus L-lactate dehydrogenase suspension) were added. After a 180 s pre-incubation time, a first measurement at 340 nm was done on an EnSpire multilabel plate reader (PerkinElmer Life Sciences, Schwerzenbach, Switzerland). 10 μL solvent 5 (succinyl-CoA synthetase suspension; 1:10 diluted) were then added to each well and the plate was read at 340 nm for 1 h every minute. […] Succinate levels are shown as mean values with standard deviations of biological triplicates. To determine whether differences between groups were significant, data was subjected to student's t-test analysis and P-values below 0.05 are given.

A word on the EC50: it is the concentration that produces a half-maximal response.

As to `Cc1[nH]c2cc(F)cc(F)c2c(=O)c1-c1ccc(Oc2ccc(OC(F)(F)F)cc2)cc1` [ELQ-400], the “GL cells, viability via ATP measurements, relative to DMSO control” value in series [1] is given as 8.4 (4.8) %; in series [2] it was 14.6 (8.6) %. The “PGI release of metacestodes relative to Tx-100” value was “significantly reduced” in series [3] (10 μM each, anaerobic (0% O2)) and “active” in series [3] (10 μM, normoxic (21% O2)). In addition, the “Metacestodes, PGI assay, relative to positive control Tx-100” value in series [4] (10 μM, normoxic, mean (SD) of triplicates, active if >20%) was 21.4 (2.5) %. For the same compound, in series [4] (PGI assay, range tested 30–0.12 μM, mean (SD) of two tests, read-out: EC50 metacestodes), the EC50 came to 1060 nM. The “Ultrastructural effects on metacestodes (TEM)” value was “did not show obvious ultrastructural alterations” in series [5] (0.2 μM, normoxic (21% O2)); “partial separation of the GL and the LL” in series [5] (2 μM, normoxic (21% O2)); “did not exhibit such alterations” in series [5] (anaerobic conditions, compared with damage at 1 and 2 μM under normoxic conditions). The “Ultrastructural effects on metacestodes (TEM): overall structural organization, especially of the GL” value in series [5] (1 μM, normoxic (21% O2)) is “partially compromised”. The “Release of succinate by metacestodes compared to DMSO control” value in series [6] (anaerobic) and in series [6] (normoxic) was “significantly enhanced” each time.

These data come from article PMC9388906, “Dual inhibition of the Echinococcus multilocularis energy metabolism” (Frontiers in Veterinary Science, 2022).
